Here are results for four compounds from patent publication US20230417751A1, “ANALYSIS OF PROTEIN KINASES IN LIVE CELLS” (Texas Tech University System, priority 2021, published 2023).

The target of one experiment is T1, Akt1M-G (Homo sapiens, UniProt P31749, M227G).
T1 construct: expressed in transfected cells
In words: Preliminary fluorogenic experiment with nanoparticle loaded with TNP-A*TP and alexa-fluo-647-ATP. Format: cell-based. To be noted: nanoparticle with TNP-A*TP and alexa-fluo-647-ATP 10:1. As to the method:
The cells transfected with Akt1M-G or WT Akt1 expression vectors were treated with the nanoparticle. Alexa-fluo-647-ATP signal monitored nanoparticle delivery in all cells (FIG. 10A-D).

Experiment [1] deals with T2, wild type AKT1 (Homo sapiens, UniProt P31749). As to conditions: in vitro; cited from earlier work.
Target sequence in this assay (P31749 whole entry, species assumed): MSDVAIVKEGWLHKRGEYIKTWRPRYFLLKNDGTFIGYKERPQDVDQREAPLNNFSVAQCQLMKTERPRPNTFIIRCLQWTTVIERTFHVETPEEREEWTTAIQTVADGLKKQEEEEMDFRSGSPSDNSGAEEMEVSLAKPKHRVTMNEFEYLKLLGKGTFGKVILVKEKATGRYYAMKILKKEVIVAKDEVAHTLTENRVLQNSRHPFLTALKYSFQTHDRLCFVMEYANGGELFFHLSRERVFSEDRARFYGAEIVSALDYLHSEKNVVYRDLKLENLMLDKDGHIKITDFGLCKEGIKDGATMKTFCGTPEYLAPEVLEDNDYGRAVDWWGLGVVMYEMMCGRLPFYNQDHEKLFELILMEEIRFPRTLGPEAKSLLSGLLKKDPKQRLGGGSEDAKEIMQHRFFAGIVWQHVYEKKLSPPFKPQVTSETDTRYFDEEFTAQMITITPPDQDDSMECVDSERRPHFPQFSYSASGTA
For experiment [2], the target named is AKT1 mutant with enlarged ATP binding pocket (Homo sapiens, UniProt P31749, M227G). To be noted: cited from earlier work.
A further experiment concerns the target T3, mutant AKT1 (M227G) (Homo sapiens, UniProt P31749, M227G).
T3 construct: mutagenesis by GENEWIZ pcDNA3-myr-HA-AKT1 1036; host or cells: HCT116
In words: Intracellular A*TPγS delivery and thio-phosphorylation assay, cells transfected with mutant AKT1. It counts as cell-based. The method, then: (§1) Plasmid constructs. Wild type AKT1 plasmid was purchased from Addgene (Addgene plasmid pcDNA3-myr-HA-AKT1 1036). Point mutation as in references (37) of the ATP-binding pocket gatekeeper amino acid (M227G) were introduced by GENEWIZ (New Jersey, USA), with a modified Strategene QuikChange® site-directed mutagenesis method.
(§2) Expression plasmid transfection. The HCT116 cells were plated into […] dishes and transfected at approximately 90% confluence with the specified plasmid (wild type pcDNA3-myr-HA-AKT1 plasmid or the mutant pcDNA3-myr-HA-AKT1 plasmid) using BP-Fectin mammalian cell transfection reagent (BioPioneer, USA) in accordance with the manufacturer's instructions. One untransfected dish was used as a negative control. After 72 hours, cells were washed twice with cold PBS. Transfection efficacy was confirmed by western-blot measurement of the expression of the HA-tagged fusion proteins with the HA tag monoclonal antibody (Thermo Fisher Scientific, USA).
(§3) Intracellular A*TPγS delivery and thio-phosphorylation assays. Control and transfected HCT116 cells were incubated with A*TPγS-loaded LCP nanoparticles for 4 hours. The cells were washed by cold PBS twice and then lysed with RIPA buffer (which contains protease and phosphatase inhibitors) for 30 minutes at 4° C. The cell lysates were treated with 2.5 mM PNBM at room temperature for 1 hour. Then, the PNBM treated cell lysates were analyzed with a western blot assay to measure protein thio-phosphorylation with the anti-thiophosphate ester rabbit monoclonal antibodies (Abcam, USA).
Immunoprecipitation assays. The PNBM-treated cell lysates were pre-cleaned by an off-target antibody. Then the cleaned cell lysates were incubated with 10 μL anti-thiophosphate ester rabbit monoclonal antibody (Abcam, USA) at 4° C. for 12 hours. 100 μL protein G beads (Thermo Fisher Scientific, USA) were mixed under rotary agitation at 4° C. for 4 hours, washed twice by wash buffer, and the beads were collected. […]
(§4) Western blotting assay. First, total protein concentrations of the cell lysates were determined by a BCA protein assay kit (Thermo, USA). […]

For a further experiment, the target named is T4, AKT2^M-G (Homo sapiens, UniProt P31751, M229G).
T4 construct: expressed in transfected cells; host or cells: HCT116
In words: Live cell AKT substrate tagging, cells transfected with AKT2^M-G. It counts as cell-based. To be noted: HCT116 cells, AKT^M-G expression vector (AKT1 and AKT2 stated together), A*TPγS delivery. The method, then:
as §3
(§5) Immunoprecipitation assays. The PNBM-treated cell lysates were pre-cleaned by an off-target antibody. Then the cleaned cell lysates were incubated with 10 μL anti-thiophosphate ester rabbit monoclonal antibody (Abcam, USA) at 4° C. for 12 hours. 100 μL protein G beads (Thermo Fisher Scientific, USA) were mixed under rotary agitation at 4° C. for 4 hours, washed twice by wash buffer, and the beads were collected. Then, proteins were captured in the beads and released by elution buffer. The elution buffer was collected and stored at −80° C.
(§6) Western blotting assay. First, total protein concentrations of the cell lysates were determined by a BCA protein assay kit (Thermo, USA). Protein extracts were separated by SDS-PAGE, then transferred onto a nitrocellulose membrane (NC membrane). […]

A further experiment addresses T5, AKT2 (Homo sapiens, UniProt P31751).
T5 construct: expressed in transfected cells; host or cells: HCT116
In words: Live cell AKT substrate tagging, cells transfected with WT AKT2. To be noted: HCT116 cells, WT-AKT expression vector (AKT1 and AKT2 stated together), A*TPγS delivery. Format: cell-based. The method, then: as §3, §5, §6

Experiment [3] addresses T2, wild type AKT1. The experiment is described as follows: Intracellular A*TPγS delivery and thio-phosphorylation assay, cells transfected with wild type AKT1. Format: cell-based. More on the design: host or cells: HCT116. As to the method: as §1, §2
Target sequence in this assay (P31749 whole entry): as the sequence (P31749 whole entry, species assumed) above
Intracellular A*TPγS delivery and thio-phosphorylation assays. […] Then, the PNBM treated cell lysates were analyzed with a western blot assay to measure protein thio-phosphorylation with the anti-thiophosphate ester rabbit monoclonal antibodies (Abcam, USA). […]
as §4

T3 sequence (P31749 whole entry M227G): as the sequence (P31749 whole entry, species assumed) above, with M227G counted along it
T1 sequence (P31749 whole entry M227G): as the sequence (P31749 whole entry, species assumed) above, with M227G counted along it
T4 sequence (P31751 whole entry M229G): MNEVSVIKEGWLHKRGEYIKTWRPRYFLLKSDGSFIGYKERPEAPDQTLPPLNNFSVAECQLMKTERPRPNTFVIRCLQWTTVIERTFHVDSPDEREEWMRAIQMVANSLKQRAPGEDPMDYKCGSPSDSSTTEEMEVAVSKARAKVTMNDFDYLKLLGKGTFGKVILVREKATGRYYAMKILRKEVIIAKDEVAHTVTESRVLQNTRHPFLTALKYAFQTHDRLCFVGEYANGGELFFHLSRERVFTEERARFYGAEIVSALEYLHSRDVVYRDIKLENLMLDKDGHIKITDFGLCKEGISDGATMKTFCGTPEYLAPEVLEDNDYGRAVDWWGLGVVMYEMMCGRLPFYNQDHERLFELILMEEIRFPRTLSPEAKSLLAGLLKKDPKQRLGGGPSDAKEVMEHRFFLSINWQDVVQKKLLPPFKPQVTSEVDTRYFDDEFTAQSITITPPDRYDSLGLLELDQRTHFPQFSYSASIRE
AKT1 mutant with enlarged ATP binding pocket, sequence (P31749 whole entry M227G): as the sequence (P31749 whole entry, species assumed) above, with M227G counted along it
T5 sequence (P31751 whole entry): as the sequence (P31751 whole entry M229G) above, with G229M counted along it

On to TNP-N^6-Benzyl-ATP [TNP-A*TP], for which the “TNP-A*TP fluorescence signal, subcellular localization” value at Akt1M-G (Akt1M-G-expressing cells) was “localized mainly to cell membrane”. For the same compound, the “TNP-A*TP fluorescence signal, specificity” value at Akt1M-G (cells transfected with Akt1M-G or WT Akt1 vectors) was “specific to Akt1M-G-expressing cells”.
Turning to `Nc1ncnc2c1ncn2[C@@H]1O[C@H](COP(=O)(O)OP(=O)(O)OP(O)(O)=S)[C@@H](O)[C@H]1O` [ATPγS], on wild type AKT1 [1], the “utilization by wild type AKT1 to tag substrate GSK3β” value was “can be utilized by wild type AKT1 to tag its substrate GSK3β in vitro”.
Consider `O=P(O)(O)OP(=O)(O)OP(=O)(O)OC[C@H]1O[C@@H](n2cnc3c(NCc4ccccc4)ncnc32)[C@H](O)[C@@H]1O` [A*TP, N^6-Benzyl-ATP], for which the “binding to AKT1 mutant with enlarged ATP binding pocket” value in experiment [2] is listed as “has been shown to bind”.
On to “N^6-Benzyladenosine-5′-(3-thiotriphosphate) [A*TPγS]”, for which the “AKT1 auto-thiophosphorylation: HA-tag Western blot of anti-thiophosphate-ester immunoprecipitant” value is “detected” on mutant AKT1 (M227G) (HCT116 cells, mutant AKT1 vector, A*TPγS-loaded LCP nanoparticle 4 hours, PNBM alkylation) and “not detected” on wild type AKT1 [3] (HCT116 cells, wild type AKT1 vector, A*TPγS-loaded LCP nanoparticle 4 hours, PNBM alkylation). Besides, the “thiophosphorylation of AKT1 substrate IKKalpha: IKKalpha Western blot of anti-thiophosphate-ester immunoprecipitant” value at mutant AKT1 (M227G) (HCT116 cells, mutant AKT1 vector, A*TPγS-loaded LCP nanoparticle, PNBM alkylation) is reported as “detected”. Besides, the “proteins immunoprecipitated by thiophosphate ester antibody (SDS-PAGE, silver blue coomassie stain)” value is reported as “immunoprecipitate at high quantities a large number of proteins” at mutant AKT1 (M227G) (lysate of mutant-AKT1-expressing HCT116 cells treated with the nanoparticle) and “not from that of wild-type-AKT1-expressing cells” at wild type AKT1 [3] (lysate of wild-type-AKT1-expressing HCT116 cells treated with the nanoparticle). Moreover, the results for the “thio-phosphorylation by Western blot with alkylated thiophosphate-tag antibody” value on AKT2^M-G and on AKT2 were “detected thio-phosphorylation” and “not those of WT-AKT transfected cells”, respectively.
